Details: male, C57BL/6, mouse, in vivo, ip
Procedure: Ob/ob mice or wildtype C57BL/6 male mice were purchased from Jackson Labs or SLAC Laboratory Animals Company Limited, Shanghai, China. PP2Cm germ-line knockout mice were generated as previously described (Lu et al. (2009) J Clin Invest 119:1678-1687). All animals were housed at 22° C. with a 12-hour light, 12-hour dark cycle with free access to water and standard chow. BCAA in water was prepared by BCAA powders. Isocaloric high protein diet (TD90018) and low protein diet (TD90016) were purchased from Envigo Teklad Diet. For glucose or insulin tolerance test, mice were fasted for 6 hours and injected (intraperitoneally) with insulin or D-glucose. […] For BCAA tolerance test, ob/ob mice at age of 10 weeks or high fat diet induced obese (DIO) mice were used. To induce DIO, high fat diet (60% kcal % fat) or control diet (10% kcal % fat) (Research Diets, New Brunswick, N.J.) was used to feed mice starting at 6 weeks of age and continued for 8 weeks. […] Plasma samples were collected at 0, 30, 60, 120 minute points to measure BCAA/BCKA levels. […]
Blood samples were collected at 0, 30, 60, 120 minute points as indicated. Plasma was then collected and BCAA/BCKA was measured.

CC(C)C[C@H](N)C(=O)O [leucine]
time point of recovery to near the basal level: 1 h

— patent US20210278391A1, “COMPOSITIONS AND METHODS FOR TREATING CARDIOVASCULAR AND METABOLIC CONDITIONS” (The Regents of the University of California, priority 2017, published 2021)
